Data set [1] concerns the target T1, FLT3 receptor (MV4-11 cell line bearing an FLT3ITD mutant) (Homo sapiens, UniProt P36888, INS600HVDFREYEYD).
T1 construct: MV4-11 cell line, which line is established from a leukaemia of constitutively active AML type bearing an FLT3ITD mutant; endogenous in cells; host or cells: MV4-11
T1 sequence (P36888 with tags, fused parts or gaps INS600HVDFREYEYD): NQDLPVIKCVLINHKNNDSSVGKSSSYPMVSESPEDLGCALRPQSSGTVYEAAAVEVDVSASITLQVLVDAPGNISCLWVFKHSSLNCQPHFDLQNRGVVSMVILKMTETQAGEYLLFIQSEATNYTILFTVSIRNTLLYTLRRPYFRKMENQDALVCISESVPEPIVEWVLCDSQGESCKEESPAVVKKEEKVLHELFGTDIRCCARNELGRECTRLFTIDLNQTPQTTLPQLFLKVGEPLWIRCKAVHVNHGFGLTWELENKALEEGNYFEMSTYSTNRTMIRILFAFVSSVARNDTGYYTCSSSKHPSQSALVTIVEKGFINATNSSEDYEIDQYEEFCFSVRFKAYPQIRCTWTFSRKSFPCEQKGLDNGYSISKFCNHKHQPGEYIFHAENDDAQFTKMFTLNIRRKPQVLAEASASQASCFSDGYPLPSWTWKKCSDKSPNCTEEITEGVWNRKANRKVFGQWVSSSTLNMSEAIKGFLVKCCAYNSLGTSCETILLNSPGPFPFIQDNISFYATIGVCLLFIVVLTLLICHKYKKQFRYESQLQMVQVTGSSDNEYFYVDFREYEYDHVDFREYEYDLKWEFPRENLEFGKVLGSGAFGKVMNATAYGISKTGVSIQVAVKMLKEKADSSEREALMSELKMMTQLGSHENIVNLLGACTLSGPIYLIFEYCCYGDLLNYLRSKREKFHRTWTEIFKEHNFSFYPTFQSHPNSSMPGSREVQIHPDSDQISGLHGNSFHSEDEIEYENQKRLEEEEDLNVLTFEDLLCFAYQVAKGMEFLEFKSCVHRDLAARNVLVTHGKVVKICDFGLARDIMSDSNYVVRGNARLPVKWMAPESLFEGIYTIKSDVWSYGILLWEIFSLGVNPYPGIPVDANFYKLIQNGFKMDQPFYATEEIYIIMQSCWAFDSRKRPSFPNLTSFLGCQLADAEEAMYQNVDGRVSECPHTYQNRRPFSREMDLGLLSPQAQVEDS
Nature of the data set: Inhibition of FLT3 receptor tyrosine kinase activity: proliferation of MV4-11 cells (CellTiter-Glo, 72 h). As to conditions: 72 hours incubation, read-out: IC50 (concentration that inhibits 50% of the proliferation of the MV4-11 cells). Type of data set: cell-based. As for the experimental part: Measurement of Inhibition of the Tyrosine Kinase Activity of the FLT3 Receptor
The inhibitory effect of the compounds according to the invention towards the tyrosine kinase activity of the FLT3 receptor was evaluated on an MV4-11 cell line, which line is established from a leukaemia of constitutively active AML type bearing an FLT3ITD mutant. The inhibitory activity is correlated to the inhibition of cell growth, according to the protocols described by Spiekermann, K. et al., Blood, 2003, 101, (4) 1494-1504 and O'Farrell, A.-M. et al., Blood, 2003, 101, (9) 3597-3605.
(§1) MV4-11 cells are washed with PBS buffer and inoculated in 96-well plates, at a density of 1×10^5 cells/ml (100 μL per well), in RPMI 1640 containing 10% FCS, in the presence or absence of the test compounds. After incubation for 72 hours, the viable cells are quantified by measuring the cellular ATP by means of the CellTiter-Glo® kit (Promega, Cat G7571). The cells are treated according to the instructions given by the kit manufacturer, and the luminescence is measured using a Luminoskan (Ascent, Labsystem) with the following parameters: measurement: single; integration time: 1000 ms, lag time: 5 s.
The inhibitory activity with respect to the FLT3 receptor is given by the concentration that inhibits 50% of the proliferation of the MV4-11 cells.
On the technique in general: Cellular ATP, detected with luciferase, serves as a proxy for viable cell number.

The target of data set [2] is T2, fusion protein Tel/PDGF-Rβ (BaF3 Tel/PDGF cells) (Homo sapiens, UniProt P09619).
T2 construct: the transmembrane and intracellular part of the PDGF-Rβ receptor; N-terminal part of the Tel transcription factor (ETV6); expressed in transfected cells; host or cells: murine haematopoietic cell line BaF/3; the other entry of the earlier key: ETV6 (P41212, Transcription factor ETV6)
T2 sequence (P09619 with tags, fused parts or gaps): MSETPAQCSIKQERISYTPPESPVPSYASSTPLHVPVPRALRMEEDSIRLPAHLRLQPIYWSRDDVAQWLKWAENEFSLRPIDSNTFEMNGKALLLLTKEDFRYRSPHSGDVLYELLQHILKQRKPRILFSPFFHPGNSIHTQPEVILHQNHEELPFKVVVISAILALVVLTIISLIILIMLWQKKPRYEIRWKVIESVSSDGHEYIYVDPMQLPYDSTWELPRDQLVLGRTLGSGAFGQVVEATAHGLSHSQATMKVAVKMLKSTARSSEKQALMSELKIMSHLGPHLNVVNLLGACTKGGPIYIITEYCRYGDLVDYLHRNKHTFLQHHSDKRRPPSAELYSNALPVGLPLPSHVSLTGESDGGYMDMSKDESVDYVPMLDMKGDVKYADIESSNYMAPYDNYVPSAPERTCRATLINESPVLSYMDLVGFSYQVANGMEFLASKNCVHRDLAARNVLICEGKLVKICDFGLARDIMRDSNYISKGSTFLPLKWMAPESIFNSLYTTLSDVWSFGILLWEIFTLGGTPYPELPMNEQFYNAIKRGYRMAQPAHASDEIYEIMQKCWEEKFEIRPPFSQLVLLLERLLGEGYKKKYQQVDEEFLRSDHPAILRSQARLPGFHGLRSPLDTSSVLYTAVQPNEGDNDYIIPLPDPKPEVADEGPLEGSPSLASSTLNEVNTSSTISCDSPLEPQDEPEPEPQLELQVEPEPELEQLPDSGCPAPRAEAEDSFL
Put plainly: Inhibition of PDGF-Rβ tyrosine kinase activity: proliferation of BaF3 Tel/PDGF cells (CellTiter-Glo, 72 h). Type of data set: cell-based, murine. As to conditions: 72 hours incubation, read-out: IC50 (concentration that inhibits 50% of the proliferation of the BaF3 Tel/PDGF cells). As for the experimental part:
Measurement of Inhibition of the Tyrosine Kinase Activity of the PDGF Beta (PDGF-Rβ) (Baf-3 tel/PDGFIRβ) Receptor:
This test consists in evaluating the effects of the compounds on the tyrosine kinase activity of the PDGF beta receptor.
The inhibitory effect of the compounds according to the invention towards the tyrosine kinase activity of the PDGF-R receptor was evaluated on the murine haematopoietic cell line BaF/3 transfected with a plasmid coding for the fusion protein Tel/PDGF-Rβ. This fusion protein is found in chronic myelomonocytic myeloid leukaemias (CMML). It comprises the N-terminal part of the Tel transcription factor and the transmembrane and intracellular part of the PDGF-Rβ receptor. This fusion protein is present in dimerized form (presence of an oligomerization domain in the N-terminal part of Tel) and, as a result, leads to constitutive activity of the kinase domain of PDGF-Rβ. This line BaF3 Tel/PDGF has been described in the literature several times and especially, in detailed manner, in the article by M. Carroll et al., PNAS, 1996, 93, 14845-14850.
as §1, with “The BaF3 Tel/PDGF” for “MV4-11”, “phosphate” for “PBS”, “5×10^4” for “1×10^5”, “[…]” for “μL”
It is thus seen that the compounds according to the invention have inhibitory activity on the tyrosine kinase activity of PDGF-Rβ. This activity is given by the concentration that inhibits 50% of the proliferation of the BaF3 Tel/PDGF cells (IC50).

Data set [3] deals with fusion protein FIP1L1-PDGF-Rα (EOL-1 cell line) (Homo sapiens, UniProt P16234). Put plainly: Inhibition of PDGF alpha receptor tyrosine kinase activity: proliferation of EOL-1 cells (CellTiter-Glo, 72 h). Type of data set: cell-based. As to conditions: 72 hours incubation, read-out: IC50 (concentration that inhibits 50% of the proliferation of the EOL-1 cells). As for the experimental part:
Measurement of Inhibition of the Tyrosine Kinase Activity of the PDGF Alpha Receptor: The inhibitory effect of the compounds according to the invention towards the tyrosine kinase activity of the PDGF alpha receptor was evaluated on the EOL-1 cell line, which line is established from a leukaemia of constitutively active chronic eosinophilic leukaemia (CEL) type. The EOL-1 line has been described as expressing the fusion protein FIP1L1-PDGF-Rα and is sensitive to kinase inhibitors in proliferation tests (Cools J. et al., Blood 2004, 103, […]). The inhibitory activity is correlated to the inhibition of cell growth. […] After incubation for 72 hours, the viable cells are quantified by measuring the cellular ATP by means of the CellTiter-Glo® kit (Promega, Cat G7571). The cells are treated according to the instructions given by the kit manufacturer, and the luminescence is measured using a Luminoskan (Ascent, Labsystem) with the following parameters: measurement: single; integration time: 1000 ms, lag time: 5 s. It is thus seen that the compounds according to the invention have inhibitory activity on the tyrosine kinase activity of PDGF-Rα. This activity is given by the concentration that inhibits 50% of the proliferation of the EOL-1 cells.

The term melting point denotes the temperature of the solid-liquid transition.

Each structure is given as a SMILES string.

Chain of fusion protein FIP1L1-PDGF-Rα (EOL-1 cell line) (P16234 579-1089, change not shown): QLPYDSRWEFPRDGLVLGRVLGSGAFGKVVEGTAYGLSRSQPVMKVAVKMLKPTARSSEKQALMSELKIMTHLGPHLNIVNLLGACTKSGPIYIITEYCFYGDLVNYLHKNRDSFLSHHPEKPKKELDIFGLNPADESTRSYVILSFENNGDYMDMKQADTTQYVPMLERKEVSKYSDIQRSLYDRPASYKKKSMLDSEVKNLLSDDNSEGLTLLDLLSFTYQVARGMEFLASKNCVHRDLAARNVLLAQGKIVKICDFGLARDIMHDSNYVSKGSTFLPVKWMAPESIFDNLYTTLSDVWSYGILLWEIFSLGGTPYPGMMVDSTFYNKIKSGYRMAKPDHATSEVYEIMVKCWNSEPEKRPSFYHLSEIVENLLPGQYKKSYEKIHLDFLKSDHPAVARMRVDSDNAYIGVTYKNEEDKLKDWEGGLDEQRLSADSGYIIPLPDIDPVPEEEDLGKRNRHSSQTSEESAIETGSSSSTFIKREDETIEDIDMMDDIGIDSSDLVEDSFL
Chain of fusion protein FIP1L1-PDGF-Rα (EOL-1 cell line) (Q6UN15 1-339 partner): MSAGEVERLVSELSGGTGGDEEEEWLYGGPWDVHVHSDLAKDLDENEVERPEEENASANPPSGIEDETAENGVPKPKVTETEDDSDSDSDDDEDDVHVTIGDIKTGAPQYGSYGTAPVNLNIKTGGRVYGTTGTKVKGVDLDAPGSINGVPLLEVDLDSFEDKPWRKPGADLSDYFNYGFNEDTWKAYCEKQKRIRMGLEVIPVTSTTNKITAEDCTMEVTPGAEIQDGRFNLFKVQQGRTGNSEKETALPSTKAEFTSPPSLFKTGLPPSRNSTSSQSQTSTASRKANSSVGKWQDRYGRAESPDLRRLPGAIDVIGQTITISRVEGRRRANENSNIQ

As to `CCn1c(N)c(C(=O)NC)c(=O)c2ccc(-c3ccc(CC(=O)Nc4nccs4)cc3)nc21` [compound 35, 2-amino-1-ethyl-N-methyl-4-oxo-7-{4-[2-oxo-2-(1,3-thiazol-2-ylamino)-ethyl]phenyl}-1,4-dihydro-1,8-naphthyridine-3-carboxamide], the melting point amounted to 303 °C. In addition, in data set [1], the IC50 worked out at 83 nM. Also, in data set [2], the IC50 amounted to 3.7 nM. For the same molecule, the IC50 in data set [3] turned out to be 0.8 nM.

These data come from patent US8436011B2, “Pyridinopyridinone derivatives, preparation thereof and therapeutic use thereof” (Sanofi, priority 2008, dated 2013).
